The NIST ThermoML archive (doi:10.1016/j.jct.2013.12.024)
± gives the expanded uncertainty stated by the source.

Details: 298.15 K; 101.33 kPa; Liquid; Vibrating tube method

Structure (SMILES) | mass density [kg/m3]
Clc1cccc(Cl)c1 [1,3-dichlorobenzene] | 1282.87 ± 0.61
CCCCCCCl [1-chlorohexane] | 873.38 ± 0.3
c1ccccc1 [benzene] | 873.45 ± 0.11
